Experimental data taken from ChEMBL document CHEMBL1141323, “Iriomoteolides-1b and -1c, 20-membered macrolides from a marine dinoflagellate Amphidinium species” (J Nat Prod, 2007).
In brackets after ≈: the same amount, converted by molar mass.

What was measured:
[1] = Cytotoxicity against human DG75 cells; type: cell-based; settings: DG-75
[2] = system: Raji (Homo sapiens); assay: Cytotoxicity against EBV-infected Raji cells; settings: human gammaherpesvirus 4, Raji

Question: Which results are given for `C=C1C[C@@H]2C/C=C/[C@H](O)[C@H](C)/C(C)=C\C(=O)O[C@H](CCC(C)C(C)O)[C@@H](C)C/C=C/[C@@](C)(O)[C@](O)(C1)O2` (stereo not given in full)?
Answer: IC50 [1]: 2 ng/mL (≈ 3.84 nM); IC50 [2]: 4 ng/mL (≈ 7.68 nM)

Question: For `C=C1C[C@@H]2C/C=C/[C@H](O)[C@H](C)/C(C)=C\C(=O)O[C@H](C[C@H](C)[C@H](C)O)[C@@H](C)C/C=C/[C@@](C)(O)[C@](O)(C1)O2`, which IC50 [1] is on record?
Answer: The IC50 was 2 ng/mL (≈ 3.95 nM).

Question: And the IC50 [2]?
Answer: The IC50 was 4 ng/mL (≈ 7.89 nM).

Question: For `C/C1=C/C(=O)[C@](C)(O)/C=C/C[C@H](C)[C@@H](C[C@H](C)[C@H](C)O)OC(=O)/C=C(/C)[C@@H](C)[C@@H](O)/C=C/C[C@H](O)C1`, which IC50 [1] is on record?
Answer: Its IC50 is 900 ng/mL (≈ 1780 nM).
